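Tested at 5 concentrations; 48 h exposure; 96-well plates; endpoints linearly interpolated, else capped at highest concentration. The concentration for 50% growth inhibition is given as GI50. TGI: total growth inhibition.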 Bounds are passed on as bounds.

Assay in all cases: NCI tumour cell line growth inhibition, 48 h
For test [1], the system named is A549 NSCLC.
In test [2] the test system is ACHN renal.
Test [3] deals with EKVX NSCLC.
For test [4], the system named is KM12 colon.
The test system of test [5] is MCF7 breast.
For test [6], the system named is NCI-H226 lung.
In test [7] the test system is NCI-H23 lung.
For test [8], the system named is NCI-H522 lung.
For test [9], the system named is SW-620 colon.
Test [10] relates to U251 CNS.

`Cc1ccc(S(=O)(=O)C2=C3C(=C(c4ccccc4)c4ccccc43)CN(S(=O)(=O)c3ccc(C)cc3)C2)cc1`: the GI50 in test [1] is greater than 100 µM; in [2], 4.52 µM; in test [3], 6.01 µM; in test [4] it was 5.87 µM; in test [5], 2.43 µM; in test [6] it was 2.57 µM. For the same compound, the GI50 was 3.36 µM in test [7], 2.41 µM in test [8], 0.636 µM in test [9] and 3.01 µM in [10]. Further, the TGI in test [1] is greater than 100 µM; in [2], 19.3 µM; in test [3] it was greater than 100 µM; in test [4], greater than 100 µM; in test [5], greater than 100 µM; in [6], 7.85 µM. The TGI in test [7] is 23.7 µM; in test [8] it was 6.35 µM; in test [9], 3.4 µM; in test [10], 12.7 µM.
`CCN1CCN(Cc2ccc3cc(C(=O)Nc4cc(NC(=O)c5ccc6c(c5)OCCO6)ccc4F)ccc3n2)CC1`: the GI50 in test [1] was 0.0511 µM; in test [2] it was 0.0274 µM; in [3], 0.112 µM; in test [4], 0.0786 µM; in test [5] it was 0.183 µM; in test [7], 0.121 µM. In addition, the GI50 in [8] is 0.0351 µM; in test [9], 0.0462 µM; in [10], 0.0464 µM. In addition, the TGI in test [1] was determined as 11.6 µM; in [2], 0.267 µM; in test [3] it was 1.79 µM; in [4] it was 7.63 µM; in [5], 6.75 µM; in test [6], 3.45 µM. Further, the TGI in test [7] worked out at 5.27 µM; in test [8], 0.427 µM; in test [9] it was 11 µM; in test [10], 11.4 µM.
As to `Cc1cccc2c(=O)c3c(sc12)c(NCCN)nc1ccccc13`, the GI50 was 0.823 µM in [1]; 0.762 µM in test [2]; 0.815 µM in test [3]; 0.913 µM in test [4]; 0.678 µM in test [5]; 0.904 µM in test [6]. For the same compound, the GI50 is 0.87 µM in test [7], 0.863 µM in [8], 0.794 µM in test [9] and 0.84 µM in test [10]. The TGI in test [1] was 1.63 µM; in [2], 1.43 µM; in [3], 1.71 µM; in test [4], 1.77 µM; in [5] it was 1.42 µM; in test [6], 2.33 µM. Moreover, the TGI in test [7] came out at 1.96 µM; in [8] it was 1.75 µM; in test [9], 1.57 µM; in test [10], 1.59 µM.
Consider `CC(=O)O[C@@H]1CC(=O)O[C@@H]2C[C@@H](CC/C(Cl)=C/C/C=C\1C)O[C@@H]2CO`, for which the GI50 in [1] is greater than 25 µM; in test [2], greater than 25 µM; in test [3], greater than 15 µM; in [5], greater than 25 µM; in test [6], greater than 25 µM; in test [7], greater than 25 µM. Further, the GI50 in test [8], in [9] and in [10] was greater than 25 µM throughout. The TGI in test [1] was greater than 25 µM; in test [2], greater than 25 µM; in test [3] it was greater than 25 µM; in [4], greater than 6.4 µM; in [5], greater than 25 µM; in test [6], greater than 25 µM. Moreover, the TGI in test [7], in test [8], in test [9] and in [10] was greater than 25 µM throughout.
Turning to `O=C1[C@H](c2ccccc2)C2c3ccccc3CCN12` (stereo partly drawn), the GI50 in test [1], in test [2], in test [3], in test [4], in test [5] and in test [6] was greater than 100 µM throughout. The GI50 in test [7], in test [8], in [9] and in test [10] was greater than 100 µM each time. Also, the TGI in test [1], in test [2], in test [3], in test [4], in test [5] and in test [6] was greater than 100 µM in each case. The TGI in [7], in test [8], in [9] and in test [10] was greater than 100 µM each time.
For the compound `CCOC(=O)C1=C(N)Oc2cc(OC)ccc2C1c1ccc(F)c(F)c1` (stereo not drawn), the GI50 was 2.08 µM in test [1]; 5.74 µM in test [2]; 3.67 µM in test [3]; 0.637 µM in test [4]; 0.452 µM in test [5]; 12.9 µM in test [6]. The GI50 was 2.89 µM in [7], 0.498 µM in test [8], 0.516 µM in test [9] and 1.84 µM in [10]. Further, the TGI was found to be 19.4 µM in test [1]; 19.8 µM in test [2]; 17.9 µM in test [3]; 15.9 µM in test [4]; 18.7 µM in [5]; 32.7 µM in test [6]. In addition, the TGI in [7] was found to be 18.4 µM; in [8] it was 10.2 µM; in test [9], 15.9 µM; in test [10] it was 14.3 µM.
Take `COc1ccc2c(c1)CC[C@@H]1[C@@H]2CC[C@]2(C)c3c(cc(C(=O)c4ccccc4)c4sccc34)C[C@@H]12`: the GI50 in test [1], in test [2], in test [3], in test [4], in test [5] and in [6] was greater than 100 µM in each case. The GI50 in test [7], in [8], in [9] and in test [10] was greater than 100 µM in each case. The TGI in test [1], in [2], in test [3], in [4], in [5] and in test [6] was greater than 100 µM each time. For the same compound, the TGI in test [7], in test [8], in test [9] and in test [10] was greater than 100 µM each time.

(Values after PubChem BioAssay (NCI).)
